Experimental data: ChEMBL document CHEMBL4334516, “Kinase Chemodiversity from the Arctic: The Breitfussins” (J Med Chem, 2019)

Key:
[1] = Toxicity in zebrafish embryos assessed as survival at 1396 uM after 72 hrs (reference value: 95%); set-up: species or system Danio rerio; settings: in vivo
SK-BR-3 = experiment: Cytotoxicity in human SK-BR-3 cells assessed as reduction in cell viability incubated for 72 hrs by SRB assay; settings: SK-BR-3, 72 h
[2] = target: T1, Serine/threonine-protein kinase 17B (Homo sapiens, UniProt O94768); experiment: Binding affinity to wild-type human full length DRAK2 (M1 to C372 residues) expressed in bacterial expression system by active-site directed competition binding assay based Kinomescan method
T1 sequence (O94768 whole entry): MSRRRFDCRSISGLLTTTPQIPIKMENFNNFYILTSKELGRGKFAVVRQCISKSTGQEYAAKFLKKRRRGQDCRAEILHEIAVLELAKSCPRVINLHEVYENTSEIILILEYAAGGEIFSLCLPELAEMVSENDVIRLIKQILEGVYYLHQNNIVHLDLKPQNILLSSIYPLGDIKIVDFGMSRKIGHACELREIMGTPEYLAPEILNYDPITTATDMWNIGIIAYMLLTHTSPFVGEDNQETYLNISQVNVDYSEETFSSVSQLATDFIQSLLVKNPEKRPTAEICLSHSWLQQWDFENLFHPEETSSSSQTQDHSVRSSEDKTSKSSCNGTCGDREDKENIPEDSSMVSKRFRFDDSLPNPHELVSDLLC

[3] = Toxicity in zebrafish embryos assessed as induction of tail degeneration by measuring unaffected embryos level at 1.4 uM after 72 hrs (reference value: 100%); format: tissue-based, Danio rerio; settings: in vivo
[4] = target: Myosin light chain kinase family member 4 (Homo sapiens, UniProt Q86YV6); experiment: Binding affinity to wild-type human partial length MYLK4 (V79 to S380 residues) expressed in bacterial expression system by active-site directed competition binding assay based Kinomescan method
[5] = target: Serine/threonine-protein kinase RIO1 (Homo sapiens, UniProt Q9BRS2); experiment: Binding affinity to wild-type human full length RIOK1 (M1 to K568 residues) expressed in bacterial expression system by active-site directed competition binding assay based Kinomescan method
[6] = target: Serine/threonine-protein kinase SIK3 (Homo sapiens, UniProt Q9Y2K2); experiment: Binding affinity to wild-type human partial length SIK3 (A90 to L395 residues) expressed in mammalian expression system assessed as residual binding level at 10 uM by active-site directed competition binding assay based Kinomescan method relative to control
[7] = target: Aurora kinase A (Homo sapiens) (UniProt O14965); experiment: Binding affinity to wild-type human partial length AURKA (E122 to K401 residues) expressed in mammalian expression system assessed as residual binding level at 10 uM by active-site directed competition binding assay based Kinomescan method relative to control
[8] = target: T2, Mitogen-activated protein kinase kinase kinase 7 (Homo sapiens) (UniProt O43318); experiment: Inhibition of TAK1 (unknown origin) assessed as residual enzyme activity at 1 uM by [33P]-ATP filter binding kinase assay relative to control
T2 sequence (whole entry): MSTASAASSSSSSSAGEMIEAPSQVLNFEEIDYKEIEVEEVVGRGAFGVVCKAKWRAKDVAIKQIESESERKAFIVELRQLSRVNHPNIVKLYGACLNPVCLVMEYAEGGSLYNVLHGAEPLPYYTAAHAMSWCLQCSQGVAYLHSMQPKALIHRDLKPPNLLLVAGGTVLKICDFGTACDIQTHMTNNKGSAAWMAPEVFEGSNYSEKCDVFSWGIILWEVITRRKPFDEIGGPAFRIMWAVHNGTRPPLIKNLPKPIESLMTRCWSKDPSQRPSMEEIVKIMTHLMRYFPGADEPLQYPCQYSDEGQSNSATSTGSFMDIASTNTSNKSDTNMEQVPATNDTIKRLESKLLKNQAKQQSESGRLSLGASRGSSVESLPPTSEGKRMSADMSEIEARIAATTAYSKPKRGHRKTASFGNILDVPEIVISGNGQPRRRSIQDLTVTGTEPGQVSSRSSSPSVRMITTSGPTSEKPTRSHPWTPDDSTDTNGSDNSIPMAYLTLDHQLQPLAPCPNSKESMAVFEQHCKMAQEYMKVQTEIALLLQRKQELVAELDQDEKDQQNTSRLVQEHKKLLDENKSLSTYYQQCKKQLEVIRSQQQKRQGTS

[9] = target: Mitogen-activated protein kinase kinase kinase 9 (Homo sapiens, UniProt P80192); experiment: Inhibition of MLK1 (unknown origin) assessed as residual enzyme activity at 1 uM by [33P]-ATP filter binding kinase assay relative to control
PLC-PRF-5 = experiment: Cytotoxicity in human PLC/PRF/5 cells assessed as reduction in cell viability incubated for 72 hrs by SRB assay; settings: PLC-PRF-5, 72 h
[10] = target: Serine/threonine-protein kinase pim-1 (Homo sapiens, UniProt P11309); experiment: Binding affinity to wild-type human partial length PIM1 (A15 to K313 residues) expressed in bacterial expression system assessed as residual binding level at 10 uM by active-site directed competition binding assay based Kinomescan method relative to control
[11] = target: Phosphatidylinositol 4-kinase beta (Homo sapiens, UniProt Q9UBF8); experiment: Binding affinity to wild-type human full length PIK4CB (M1 to M828 residues) expressed in mammalian expression system by active-site directed competition binding assay based Kinomescan method
[12] = Unbound fraction in human plasma at 5 uM incubated for 6 hrs at 37 degC by LC-MS analysis based equilibrium dialysis; format: ADME, cell-free
A673 = experiment: Cytotoxicity in human A673 cells assessed as reduction in cell viability incubated for 72 hrs by SRB assay; settings: A673, 72 h
[13] = Intrinsic clearance in human liver microsomes at 3 uM measured up to 50 mins by LC-MS analysis; format: ADME, Microsome; settings: read-out: CLH
[14] = target: Testis-specific serine/threonine-protein kinase 1 (Homo sapiens) (UniProt Q9BXA7); experiment: Inhibition of TSSK1 (unknown origin) assessed as residual enzyme activity at 50 uM by [33P]-ATP filter binding kinase assay relative to control
MCF7 = experiment: Cytotoxicity in human MCF7 cells assessed as reduction in cell viability by MTS assay; format: functional, cell-based; settings: TDE = time-dependent effect

COc1cc2c(-c3cnc(-c4ccc[nH]4)o3)c[nH]c2cc1Br
survival at 72 h, 1396 µM [1]: 0%
IC50 (SK-BR-3): 1500 nM
Kd [2]: 390 nM
Activity [3]: 100%
Kd [4]: 430 nM
Kd [5]: 2900 nM
Activity [6]: 94%
Activity [7]: 80%
Activity [8]: 35%
Activity [9]: 26%
IC50 (PLC-PRF-5): 1500 nM
Activity [10]: 9.5%
Kd [11]: 2900 nM
Fu [12]: 0.3%
IC50 (A673): 2200 nM
microsomal CLint at 3 µM [13]: 14 µL/min/mg

COc1cc(Br)cc2[nH]cc(-c3oc(-c4ccc[nH]4)nc3I)c12
Activity [14]: 21%

COc1cc(Br)cc2[nH]cc(-c3cnc(-c4ccc[nH]4)o3)c12
Activity (MCF7): Tde
